Measured values as given in the NIST ThermoML archive (doi:10.1021/je050333h).
Numbers after ± are expanded uncertainties.

Assay: cn = amount concentration of the nth substance listed, in mol/dm3
Details: 101 kPa, Liquid; for speed of sound: Sing-around technique in a fixed-path interferometer

CCCCC(CC)COC(=O)CC(C(=O)OCC(CC)CCCC)S(=O)(=O)[O-].[Na+] (stereo not given) [sodium bis(2-ethylhexyl) sulfosuccinate] + CC(C)CC(C)(C)C
Details	kinematic viscosity [m2/s]	mass density [kg/m3]	speed of sound [m/s]
293.15 K, c1 = 0.0993	8.03e-07 ± 1.4e-08	704.23 ± 6.1	1103.5 ± 1.3
293.15 K, c1 = 0.2006	9.05e-07 ± 1.5e-08	718.92 ± 5.8	1104 ± 1.3
293.15 K, c1 = 0.302	1.04e-06 ± 1.7e-08	736.65 ± 5.5	1105.7 ± 1.3
293.15 K, c1 = 0.4037	1.21e-06 ± 2e-08	754.54 ± 5.3	1107.9 ± 1.3
293.15 K, c1 = 0.5242	1.52e-06 ± 2.5e-08	775.5 ± 4.9	1111.5 ± 1.3
293.15 K, c1 = 0.6067	1.83e-06 ± 3e-08	794.1 ± 4.6	1115.2 ± 1.3
293.15 K, c1 = 0.7046	2.28e-06 ± 3.7e-08	812.69 ± 4.3	1120.4 ± 1.3
293.15 K, c1 = 0.8053	2.96e-06 ± 4.7e-08	829.38 ± 4.1	1126.2 ± 1.3
293.15 K, c1 = 0.9065	4.07e-06 ± 6.5e-08	847.23 ± 3.8	1133.6 ± 1.3
293.15 K, c1 = 1.012	5.97e-06 ± 8.9e-08	865.07 ± 3.5	1142.4 ± 1.3
298.15 K, c1 = 0.0987	7.58e-07 ± 1.3e-08	700.09 ± 6.1	1082.4 ± 1.3
298.15 K, c1 = 0.1994	8.56e-07 ± 1.5e-08	714.76 ± 5.9	1083.1 ± 1.3
298.15 K, c1 = 0.3003	9.87e-07 ± 1.7e-08	732.48 ± 5.6	1085.1 ± 1.3
298.15 K, c1 = 0.4017	1.14e-06 ± 1.9e-08	750.77 ± 5.3	1087.3 ± 1.3
298.15 K, c1 = 0.5213	1.42e-06 ± 2.3e-08	771.2 ± 5	1091.2 ± 1.3
298.15 K, c1 = 0.6034	1.67e-06 ± 2.7e-08	789.8 ± 4.7	1095 ± 1.3
298.15 K, c1 = 0.701	2.1e-06 ± 3.3e-08	808.51 ± 4.4	1100.4 ± 1.3
298.15 K, c1 = 0.8013	2.76e-06 ± 4.3e-08	825.19 ± 4.1	1106.5 ± 1.3
298.15 K, c1 = 0.902	3.73e-06 ± 5.7e-08	843 ± 3.9	1113.8 ± 1.3
298.15 K, c1 = 1.007	5.27e-06 ± 8e-08	860.81 ± 3.6	1123 ± 1.3
303.15 K, c1 = 0.0981	7.23e-07 ± 1.3e-08	695.93 ± 6.2	1061.6 ± 1.3
303.15 K, c1 = 0.1983	8.13e-07 ± 1.4e-08	710.7 ± 6	1062.4 ± 1.3
303.15 K, c1 = 0.2986	9.27e-07 ± 1.6e-08	728.39 ± 5.7	1064.5 ± 1.3
303.15 K, c1 = 0.3988	1.07e-06 ± 1.8e-08	745.5 ± 5.4	1066.9 ± 1.3
303.15 K, c1 = 0.5185	1.32e-06 ± 2.2e-08	767 ± 5.1	1071.1 ± 1.3
303.15 K, c1 = 0.6002	1.56e-06 ± 2.5e-08	785.6 ± 4.8	1075 ± 1.3
303.15 K, c1 = 0.6974	1.93e-06 ± 3.1e-08	804.41 ± 4.5	1080.5 ± 1.3
303.15 K, c1 = 0.7972	2.53e-06 ± 4e-08	820.98 ± 4.2	1086.5 ± 1.3
303.15 K, c1 = 0.8975	3.43e-06 ± 5.3e-08	838.76 ± 3.9	1094.1 ± 1.3
303.15 K, c1 = 1.002	4.77e-06 ± 7.3e-08	856.54 ± 3.6	1103.7 ± 1.3
313.15 K, c1 = 0.097	6.55e-07 ± 1.2e-08	687.78 ± 6.3	1020.3 ± 1.3
313.15 K, c1 = 0.1956	7.34e-07 ± 1.3e-08	700.9 ± 6.1	1021.5 ± 1.3
313.15 K, c1 = 0.2946	8.29e-07 ± 1.4e-08	718.5 ± 5.8	1024 ± 1.3
313.15 K, c1 = 0.3949	9.53e-07 ± 1.6e-08	738.2 ± 5.5	1026.6 ± 1.3
313.15 K, c1 = 0.5111	1.17e-06 ± 1.9e-08	756.1 ± 5.2	1031.3 ± 1.3
313.15 K, c1 = 0.5932	1.35e-06 ± 2.2e-08	776.5 ± 4.9	1035.6 ± 1.3
313.15 K, c1 = 0.6899	1.67e-06 ± 2.7e-08	795.7 ± 4.6	1041.3 ± 1.3
313.15 K, c1 = 0.7889	2.12e-06 ± 3.4e-08	812.51 ± 4.3	1048.1 ± 1.3
313.15 K, c1 = 0.8884	2.79e-06 ± 4.4e-08	830.24 ± 4	1055.8 ± 1.3
313.15 K, c1 = 0.9921	3.89e-06 ± 6e-08	847.98 ± 3.8	1065.5 ± 1.3
323.15 K, c1 = 0.0959	5.95e-07 ± 1.1e-08	680.26 ± 6.5	979.8 ± 1.3
323.15 K, c1 = 0.1937	6.66e-07 ± 1.2e-08	694.2 ± 6.2	981.2 ± 1.3
323.15 K, c1 = 0.2919	7.5e-07 ± 1.3e-08	712 ± 6	984.1 ± 1.3
323.15 K, c1 = 0.3904	8.59e-07 ± 1.5e-08	729.7 ± 5.7	987.1 ± 1.3
323.15 K, c1 = 0.505	1.04e-06 ± 1.7e-08	747 ± 5.4	992.3 ± 1.3
323.15 K, c1 = 0.5858	1.19e-06 ± 2e-08	766.8 ± 5.1	996.8 ± 1.3
323.15 K, c1 = 0.6822	1.47e-06 ± 2.4e-08	786.9 ± 4.8	1002.8 ± 1.3
323.15 K, c1 = 0.7807	1.83e-06 ± 2.9e-08	804.04 ± 4.5	1009.9 ± 1.3
323.15 K, c1 = 0.8792	2.35e-06 ± 3.7e-08	821.7 ± 4.2	1018 ± 1.3
323.15 K, c1 = 0.982	3.09e-06 ± 4.9e-08	839.35 ± 3.9	1028 ± 1.3
